One may read the IC50 as the concentration that gives 50% inhibition.

The structures appear in SMILES notation. Read-outs that look alike come from different tables or passages of the source.

The test system of the experiment is lung cancer cell lines (e.g. NCI-H23, NCI-H1229). The experiment in a line: Cell based assay, cell viability (CellTiter-Glo), lung cancer cell lines. Particulars: Homo sapiens. A digest of the protocol: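 Each commercial line was plated and allowed 24 h to settle at constant temperature. Compound exposure ran 72 h at final concentrations spanning 0 to 2 μM. Cell viability was then determined by luminescent ATP detection.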
Background: In ATP-based viability assays light output follows the ATP content of the culture.

[1] abbreviates: A549 cells, 72 hours treatment, CellTiter-Glo, read-out: IC50, lung cancer cell line A549.
Setting [2] is: DMS 114 cells, 72 hours treatment, CellTiter-Glo, read-out: IC50, lung cancer cell line DMS 114.
Setting [3] is: MRC-5 cells, 72 hours treatment, CellTiter-Glo, read-out: IC50.
[4] abbreviates: NCI-H23 cells, 72 hours treatment, CellTiter-Glo, read-out: IC50, lung cancer cell line NCI-H23.
Setting [5] is: NCI-H460 cells, 72 hours treatment, CellTiter-Glo, read-out: IC50, lung cancer cell line NCI-H460.
Where [6] appears, read: NCI-H522 cells, 72 hours treatment, CellTiter-Glo, read-out: IC50, lung cancer cell line NCI-H522.
Where [7] appears, read: NCI-H1299 cells, 72 hours treatment, CellTiter-Glo, read-out: IC50, lung cancer cell line NCI-H1299.
The mark [8] stands for this setting: NCI-H1437 cells, 72 hours treatment, CellTiter-Glo, read-out: IC50, lung cancer cell line NCI-H1437.
The mark [9] stands for this setting: Lung cancer cell line A549, 72 hours, cell viability (CellTiter-Glo), read-out: IC50, A549.
Setting [10] is: Lung cancer cell line DMS 114, 72 hours, cell viability (CellTiter-Glo), read-out: IC50, DMS 114.
Setting [11] is: Lung cancer cell line NCI-H23, 72 hours, cell viability (CellTiter-Glo), read-out: IC50, NCI-H23.
Setting [12] is: Lung cancer cell line NCI-H460, 72 hours, cell viability (CellTiter-Glo), read-out: IC50, NCI-H460.
The mark [13] stands for this setting: Lung cancer cell line NCI-H522, 72 hours, cell viability (CellTiter-Glo), read-out: IC50, NCI-H522.
The mark [14] stands for this setting: Lung cancer cell line NCI-H1299, 72 hours, cell viability (CellTiter-Glo), read-out: IC50, NCI-H1299.
[15] abbreviates: Lung cancer cell line NCI-H1437, 72 hours, cell viability (CellTiter-Glo), read-out: IC50, NCI-H1437.
[16] abbreviates: MRC-5 (listed under Lung cancer cell line), 72 hours, cell viability (CellTiter-Glo), read-out: IC50, MRC-5.

On to `COc1cccc2[nH]c(SCc3ccc(S(F)(F)(F)(F)F)cc3)c(C(C)=O)c(=O)c12` [Compound 92, 3-acetyl-5-methoxy-2-((4-(pentafluoro--sulfanyl)benzyl)thio)quinolin-4(1H)-one], for which the IC50 by setting is: under setting [1], > 2000 nM; under setting [2], > 2000 nM; under setting [3], > 2000 nM; under setting [4], > 2000 nM; under setting [5], > 2000 nM; under setting [6], > 2000 nM. For the same molecule, the IC50 by setting is: under setting [7], > 2000 nM; under setting [8], > 10000 nM.

As to `COc1cccc2[nH]c([S+]([O-])Cc3ccc(S(F)(F)(F)(F)F)cc3)c(C(C)=O)c(=O)c12` (stereo not shown) [Compound 93, 3-acetyl-5-methoxy-2-((4-(pentafluoro--sulfanyl)benzyl)sulfinyl)quinolin-4(1H)-one], the half-inhibitory concentration (IC50) reads like this: under setting [1], > 2000 nM; under setting [2], > 2000 nM; under setting [3], > 2000 nM; under setting [4], > 2000 nM; under setting [5], > 2000 nM; under setting [6], > 2000 nM. The 50% inhibitory concentration (IC50) was > 2000 nM under setting [7] and > 10000 nM under setting [8].

On to `COc1cccc2[nH]c([S+]([O-])Cc3cc(C)on3)c(C(C)=O)c(=O)c12` (stereo not shown) [Compound 94, 3-acetyl-5-methoxy-2-(((5-methylisoxazol-3-yl)methyl)sulfinyl)quinolin-4(1H)-one], for which the IC50 under setting [1] was > 2000 nM; the IC50 under setting [2] is > 2000 nM; the half-maximal inhibitory concentration (IC50) under setting [3] is > 2000 nM; the IC50 under setting [4] came out at 2070 nM; the IC50 under setting [5] is > 2000 nM; the 50% inhibitory concentration (IC50) under setting [6] is > 2000 nM. Moreover, the IC50 is > 2000 nM under setting [7] and > 10000 nM under setting [8].

Consider `Cc1cc(C[S+]([O-])c2[nH]c3c(Br)ccc(Cl)c3c(=O)c2C(=O)C2CC2)no1` (stereo not shown) [Compound 96, 8-bromo-5-chloro-3-(cyclopropanecarbonyl)-2-(((5-methylisoxazol-3-yl)methyl)sulfinyl)quinolin-4(1H)-one], for which the IC50 under setting [1] was > 2000 nM; the IC50 under setting [2] was > 2000 nM; the IC50 under setting [3] stood at 1810 nM; the half-maximal inhibitory concentration (IC50) under setting [4] was determined as 1340 nM; the half-maximal inhibitory concentration (IC50) under setting [5] is > 2000 nM; the half-inhibitory concentration (IC50) under setting [6] was determined as 1820 nM. The IC50 under setting [7] was 1800 nM and the IC50 under setting [8] is > 10000 nM.

`Cc1cc(C[S+]([O-])c2[nH]c3c(Cl)ccc(Cl)c3c(=O)c2C(=O)C2CC2)no1` (stereo not shown) [Compound 97, 5,8-dichloro-3-(cyclopropanecarbonyl)-2-(((5-methylisoxazol-3-yl)methyl)sulfinyl)quinolin-4(1H)-one]: the IC50 by setting is: under setting [1], > 2000 nM; under setting [2], > 2000 nM; under setting [3], 1430 nM; under setting [4], 1090 nM; under setting [5], 1460 nM; under setting [6], 1320 nM. The concentration for half-maximal inhibition (IC50) is 1480 nM under setting [7] and > 10000 nM under setting [8].

Take `CC(=O)c1c([S+]([O-])Cc2ccc(C#N)s2)[nH]c2c(Br)ccc(Cl)c2c1=O` (stereo not shown) [Compound 98, 5-(((3-acetyl-8-bromo-5-chloro-4-oxo-1,4-dihydroquinolin-2-yl)sulfinyl)methyl)thiophene-2-carbonitrile]: the IC50 by setting is: under setting [1], > 2000 nM; under setting [2], > 2000 nM; under setting [3], > 2000 nM; under setting [4], 1640 nM; under setting [5], 1680 nM; under setting [6], > 2000 nM. In addition, the IC50 was 1810 nM under setting [7] and > 10000 nM under setting [8].

Consider `CC(=O)c1c([S+]([O-])Cc2ccc(N)nc2)[nH]c2c(Br)ccc(Cl)c2c1=O` (stereo not shown) [Compound 100, 3-acetyl-2-(((6-aminopyridin-3-yl)methyl)sulfinyl)-8-bromo-5-chloroquinolin-4(1H)-one], for which the IC50 reads like this: under setting [9], > 2000 nM; under setting [10], > 2000 nM; under setting [11], > 2000 nM; under setting [12], > 2000 nM; under setting [13], > 2000 nM; under setting [14], > 2000 nM. Moreover, the IC50 runs as follows: under setting [15], > 10000 nM; under setting [16], > 2000 nM.

On to `O=C(c1c([S+]([O-])Cc2ccc(SC(F)(F)F)cc2)[nH]c2c(Br)ccc(Cl)c2c1=O)C1CC1` (stereo not shown) [Compound 101, 8-bromo-5-chloro-3-(cyclopropanecarbonyl)-2-((4-((trifluoromethyl)thio)benzyl)sulfinyl)quinolin-4(1H)-one], for which the half-inhibitory concentration (IC50) under setting [9] was > 2000 nM; the IC50 under setting [10] is > 2000 nM; the IC50 under setting [11] turned out to be 1330 nM; the IC50 under setting [12] was > 2000 nM; the IC50 under setting [13] is > 2000 nM; the IC50 under setting [14] was > 2000 nM. The IC50 was > 10000 nM under setting [15] and > 2000 nM under setting [16].

Take `CC(=O)c1c([S+]([O-])Cc2ccc(C(F)(F)F)nc2C)[nH]c2c(Br)ccc(Cl)c2c1=O` (stereo not shown) [Compound 102, 3-acetyl-8-bromo-5-chloro-2-(((2-methyl-6-(trifluoromethyl)pyridin-3-yl)methyl)sulfinyl)quinolin-4(1H)-one]: the half-maximal inhibitory concentration (IC50) runs as follows: under setting [9], 1640 nM; under setting [10], > 2000 nM; under setting [11], 1260 nM; under setting [12], 1440 nM; under setting [13], 1490 nM; under setting [14], 1110 nM. Moreover, the IC50 is, setting by setting: under setting [15], > 10000 nM; under setting [16], 1430 nM.

As to `CC(=O)c1c([S+]([O-])Cc2ccc(NS(C)(=O)=O)cc2)[nH]c2c(Br)ccc(Cl)c2c1=O` (stereo not shown) [Compound 103, N-(4-(((3-acetyl-8-bromo-5-chloro-4-oxo-1,4-dihydroquinolin-2-yl)sulfinyl)methyl)phenyl)methane-sulfonamide], the IC50 was > 2000 nM under setting [9]; > 2000 nM under setting [10]; > 2000 nM under setting [11]; > 2000 nM under setting [12]; > 2000 nM under setting [13]; > 2000 nM under setting [14]. Moreover, the 50% inhibitory concentration (IC50) by setting is: under setting [15], > 10000 nM; under setting [16], > 2000 nM.

As to `CC(=O)c1c([S+]([O-])Cc2ccc(Cl)nc2)[nH]c2c(Br)ccc(Cl)c2c1=O` (stereo not shown) [Compound 104, 3-acetyl-8-bromo-5-chloro-2-(((6-chloropyridin-3-yl)methyl)sulfinyl)quinolin-4(1H)-one], the IC50 by setting is: under setting [9], 1680 nM; under setting [10], > 2000 nM; under setting [11], 1270 nM; under setting [12], 1510 nM; under setting [13], 1410 nM; under setting [14], 1170 nM. Moreover, the half-inhibitory concentration (IC50) under setting [15] is > 10000 nM and the IC50 under setting [16] worked out at 1620 nM.

Turning to `COCCNc1ccc(C[S+]([O-])c2[nH]c3c(Br)ccc(Cl)c3c(=O)c2C(C)=O)cn1` (stereo not shown) [Compound 105, 3-acetyl-8-bromo-5-chloro-2-(((6-((2-methoxyethyl)amino)pyridin-3-yl)methyl)sulfinyl)quinolin-4(1H)-one], the half-maximal inhibitory concentration (IC50) was > 2000 nM under setting [9]; > 2000 nM under setting [10]; > 2000 nM under setting [11]; > 2000 nM under setting [12]; > 2000 nM under setting [13]; > 2000 nM under setting [14]. Besides, the IC50 reads like this: under setting [15], > 10000 nM; under setting [16], > 2000 nM.

With `CC(=O)c1c([S+]([O-])Cc2nonc2C)[nH]c2c(Br)ccc(Cl)c2c1=O` (stereo not shown) [Compound 106, 3-acetyl-8-bromo-5-chloro-2-(((4-methyl-1,2,5-oxadiazol-3-yl)methyl)sulfinyl)quinolin-4(1H)-one], the IC50 is, setting by setting: under setting [9], > 2000 nM; under setting [10], > 2000 nM; under setting [11], > 2000 nM; under setting [12], > 2000 nM; under setting [13], > 2000 nM; under setting [14], > 2000 nM. Moreover, the IC50 was > 10000 nM under setting [15] and > 2000 nM under setting [16].

With `CC(=O)c1c([S+]([O-])Cc2cnc3[nH]ccc3c2)[nH]c2c(Br)ccc(Cl)c2c1=O` (stereo not shown) [Compound 107, 2-(((1H-pyrrolo[2,3-b]pyridin-5-yl)methyl)sulfinyl)-3-acetyl-8-bromo-5-chloroquinolin-4(1H)-one], the IC50 is, setting by setting: under setting [9], > 2000 nM; under setting [10], > 2000 nM; under setting [11], > 2000 nM; under setting [12], > 2000 nM; under setting [13], > 2000 nM; under setting [14], > 2000 nM. The IC50 runs as follows: under setting [15], > 10000 nM; under setting [16], > 2000 nM.

The values are drawn from US11464770B2, “Anticancer pharmaceutical composition” (NATIONAL CANCER CENTER, priority 2016, dated 2022).
